Our source for the Ki values is paper PMC6321117, “Sulfonamide Inhibition Studies of a New β-Carbonic Anhydrase from the Pathogenic Protozoan Entamoeba histolytica” (International Journal of Molecular Sciences, 2018).

Where two headings read alike, the source gives them in different places.

One assay concerns the target hCA I. Conditions: human recombinant isozyme, α class, stopped flow CO2 hydrase assay; cited from earlier work.
The target of assay [1] is T1, EhiCA (β-carbonic anhydrase) (Entamoeba histolytica, UniProt C4LXK3).
T1 sequence (C4LXK3 1-188): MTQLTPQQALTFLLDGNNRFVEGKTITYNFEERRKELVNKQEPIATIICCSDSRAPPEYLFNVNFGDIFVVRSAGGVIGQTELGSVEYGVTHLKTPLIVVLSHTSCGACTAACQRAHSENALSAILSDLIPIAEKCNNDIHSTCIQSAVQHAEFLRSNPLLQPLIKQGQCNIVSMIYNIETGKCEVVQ
As to the kind of experiment: biochemical. Here is the method:
An Sx.18Mv-R Applied Photophysics (Oxford, UK) stopped-flow instrument has been used to assay the catalytic activity of various CA isozymes for CO2 hydration reaction. […] The uncatalyzed rates were determined in the same manner and subtracted from the total observed rates. Stock solutions of inhibitors (0.1 mM) were prepared in distilled-deionized water, and dilutions up to 1 nM were done thereafter with the assay buffer. Enzyme and inhibitor solutions were pre-incubated together for 15 min before assay, to allow for the formation of the enzyme–inhibitor complex. The inhibition constants were obtained by non-linear least-squares methods using PRISM 3 and the Cheng–Prusoff equation, as reported earlier.

As for `Cc1ccc(S(N)(=O)=O)cc1` [Compound 4], at hCA I, the Ki was 78.5 µM.
With `Nc1ccc(S(N)(=O)=O)cc1` [Compound 2], the Ki in assay [1] amounted to 6.01 µM.
On to `O=C1NS(=O)(=O)c2ccccc21` [SAC, saccharin], for which the Ki at hCA I was 18.5 µM.
Consider `NS(=O)(=O)c1ccc(C(=O)O)cc1` [Compound 18, 4-carboxy-benzenesulfonamide], for which, in assay [1], the Ki worked out at 0.383 µM.
In assay [1] (KI EhiCA, β class, stopped-flow CO2 hydrase assay, 3 different assays, errors 5–10%), `CC1(C)O[C@@H]2[C@@H](CO[C@@]3(COS(N)(=O)=O)OC(C)(C)O[C@@H]23)O1` [TPM, topiramate] yielded a Ki of 3.1 µM.
Take `NS(=O)(=O)c1cc(Cl)c(Cl)c(S(N)(=O)=O)c1` [DCP, dichlorophenamide]: in assay [1], affinity was put at a Ki of 0.79 µM.
Take `NS(=O)(=O)c1cccc(S(N)(=O)=O)c1` [Compound 3]: the Ki at hCA I was 0.079 µM.
